The text below walks through data of US10874670B2, “Substituted fused heteroaromatic compounds as kinase inhibitors and the use thereof” (IMPACT THERAPEUTICS, INC., priority 2017, dated 2020).

pIC50: −log10 of the molar value.

One assay concerns the target ATM enzyme (human) (Homo sapiens, UniProt Q13315). Kind of assay: ATM kinase assay (HTRF, GST-cMyc-p53 substrate). Type of assay: biochemical. The conditions noted are these: for inhibition at 0.01 µM: C 0.01 μm (final concentration of compound); for inhibition at 0.1 µM: C 0.1 μm (final concentration of compound). How it is done:
In Vitro Inhibition of ATM by N,N-dimethyl-3-(4-(1-(tetrahydro-2H-pyran-4-yl)-[1,2,4]triazolo[4,3-a]quinoxalin-8-yl)phenoxy)propan-1-amine and its Analogues was Determined by ATM Kinase Assay
The reaction was initiated by the addition of a Mg/ATP mixture and incubation for 30 minutes at room temperature, the reaction was quenched by the addition of a stop solution containing EDTA. Finally, the detection buffer containing the d2-labeled anti-GST monoclonal antibody and the europium-labeled anti-phospho p53 (Ser15) antibody was added. The plate was then read in time resolved fluorescence mode and the homogeneous time resolved fluorescence (HTRF) signal was determined according to the equation: HTRF=10000×(Em665nm/Em620nm). Each compound sample was repeated in duplicate. The experiment negative control was all components except of the ATM enzyme and the positive control contained all components. All reactions were quenched by adding EDTA.
ATM kinase inhibition was detected by using the method described above. The curve equation for calculating IC50 value is as follows:
[formula] • wherein, C is the concentration of compound and D is the slope factor.

The subject of assay [1] is human colon cancer cell SW620. The experiment in a line: MTT assay, growth of SW620 cells, compounds combined with CPT-11. The assay is classed as cell-based. The conditions noted are these: combined with CPT-11 (205 nM medium), 5 days, MTT. How it is done:
Inhibitory effects of N,N-dimethyl-3-(4-(1-(tetrahydro-2H-pyran-4-yl)-[1,2,4]triazolo[4,3-a]quinoxalin-8-yl)phenoxy)propan-1-amine and its Analogues Combined with CPT-11 on the Growth of Human Colon Cancer Cell SW620 were Determined by MTT Assay
(§1) SW620 cells were digested by trypsinase, centrifuged at 800 rpm for 5 minutes, the supernatant was discarded, resuspended with fresh medium (RPMI 1640 medium+10% FBS) and counted. The cells were seeded into 96-well cell culture plate with appropriate cell density and incubated overnight in a 37° C. 5% CO2 incubator. The stock solutions of the tested compound and the reference compound AZD0156 were serially diluted to 8 concentrations by DMSO at the ratios of 1:3 and 1:10, respectively, the first concentration was 10 μM or 1 μM, and the last concentration was negative control of DMSO (0 μM, the final concentration of DMSO was 1%). 5 μL of each concentration was added to 120 μL of medium (25 times diluted) and mixed by shaking. The overnight cells were taken and the culture medium was removed, 195 μL of fresh medium containing 205 nM CPT-11 was added to each well, and 5 μL of diluted medium containing the corresponding concentration of the tested sample was added respectively, and the culture plate was then placed in the 5% CO2 cell culture incubator at 37° C. for 5 days. After removing the original solution, 100 pt of fresh serum-free DMEM medium containing MTT (0.5 mg/mL) was added to each well, the culture was continued. After 4 hours, the original solution was removed, 100 μL of DMSO was added into each well, the 96-well plates were shaken away from light for 10 minutes and placed in a multi-function reader to read the absorbance at the wavelength of 552/630/690 nm. GraphPad Prism 6.0 was used to analyze the data. The inhibitory activity of compounds on cell proliferation was plotted based on cell viability and compound concentration. The IC50 value was fitted by a sigmoidal dose response curve equation Y=100/(1+10^(Log C−Log IC50)), where C was the concentration of compound.
Table 3 summarizes the inhibitory effects of compounds combined with CPT-11 on the growth of human colon cancer cell SW620 (IC50).
(Tetrazolium assays rely on reduction of a dye to a coloured formazan, in cell work by metabolically active cells.)

The subject of assay [2] is human breast cancer cell MDA-MB-468. Kind of assay: MTT assay, growth of MDA-MB-468 cells. As to conditions: 7 days, MTT. Type of assay: cell-based. How it is done: Inhibitory Effects of N,N-dimethyl-3-(4-(1-(tetrahydro-2H-pyran-4-yl)-[1,2,4]triazolo[4,3-a]quinoxalin-8-yl)phenoxy)propan-1-amine and its Analogues on the Growth of Human Breast Cancer Cell MDA-MB-468 were Determined by MTT Assay
as §1, with “MDA-MB-468 cells” for “SW620 cells”, “1:10, respectively:” for “1:10, respectively,”, “was 100” for “was 10”, “medium” for “medium containing 205 nM CPT-11”, “for 7 days (On the fourth day, the medium containing drugs was removed and fresh medium containing drugs was added for continuous cultivation).” for “for 5 days.”, “100 μL” for “100 pt”
Table 4 summarizes the inhibitory effects of compounds on the growth of human breast cancer cell MDA-MB-468 (IC50).

Setting [3] is: Homo sapiens, MDA-MB-468, 168 h.
[4] abbreviates: 0.5 h, read-out: Inh (%) of ATM kinase.
The mark [5] stands for this setting: 0.5 h, C 1 μm (final concentration of compound), read-out: Inh (%) of ATM kinase.

Chain of ATM enzyme (human) (Q13315 whole entry): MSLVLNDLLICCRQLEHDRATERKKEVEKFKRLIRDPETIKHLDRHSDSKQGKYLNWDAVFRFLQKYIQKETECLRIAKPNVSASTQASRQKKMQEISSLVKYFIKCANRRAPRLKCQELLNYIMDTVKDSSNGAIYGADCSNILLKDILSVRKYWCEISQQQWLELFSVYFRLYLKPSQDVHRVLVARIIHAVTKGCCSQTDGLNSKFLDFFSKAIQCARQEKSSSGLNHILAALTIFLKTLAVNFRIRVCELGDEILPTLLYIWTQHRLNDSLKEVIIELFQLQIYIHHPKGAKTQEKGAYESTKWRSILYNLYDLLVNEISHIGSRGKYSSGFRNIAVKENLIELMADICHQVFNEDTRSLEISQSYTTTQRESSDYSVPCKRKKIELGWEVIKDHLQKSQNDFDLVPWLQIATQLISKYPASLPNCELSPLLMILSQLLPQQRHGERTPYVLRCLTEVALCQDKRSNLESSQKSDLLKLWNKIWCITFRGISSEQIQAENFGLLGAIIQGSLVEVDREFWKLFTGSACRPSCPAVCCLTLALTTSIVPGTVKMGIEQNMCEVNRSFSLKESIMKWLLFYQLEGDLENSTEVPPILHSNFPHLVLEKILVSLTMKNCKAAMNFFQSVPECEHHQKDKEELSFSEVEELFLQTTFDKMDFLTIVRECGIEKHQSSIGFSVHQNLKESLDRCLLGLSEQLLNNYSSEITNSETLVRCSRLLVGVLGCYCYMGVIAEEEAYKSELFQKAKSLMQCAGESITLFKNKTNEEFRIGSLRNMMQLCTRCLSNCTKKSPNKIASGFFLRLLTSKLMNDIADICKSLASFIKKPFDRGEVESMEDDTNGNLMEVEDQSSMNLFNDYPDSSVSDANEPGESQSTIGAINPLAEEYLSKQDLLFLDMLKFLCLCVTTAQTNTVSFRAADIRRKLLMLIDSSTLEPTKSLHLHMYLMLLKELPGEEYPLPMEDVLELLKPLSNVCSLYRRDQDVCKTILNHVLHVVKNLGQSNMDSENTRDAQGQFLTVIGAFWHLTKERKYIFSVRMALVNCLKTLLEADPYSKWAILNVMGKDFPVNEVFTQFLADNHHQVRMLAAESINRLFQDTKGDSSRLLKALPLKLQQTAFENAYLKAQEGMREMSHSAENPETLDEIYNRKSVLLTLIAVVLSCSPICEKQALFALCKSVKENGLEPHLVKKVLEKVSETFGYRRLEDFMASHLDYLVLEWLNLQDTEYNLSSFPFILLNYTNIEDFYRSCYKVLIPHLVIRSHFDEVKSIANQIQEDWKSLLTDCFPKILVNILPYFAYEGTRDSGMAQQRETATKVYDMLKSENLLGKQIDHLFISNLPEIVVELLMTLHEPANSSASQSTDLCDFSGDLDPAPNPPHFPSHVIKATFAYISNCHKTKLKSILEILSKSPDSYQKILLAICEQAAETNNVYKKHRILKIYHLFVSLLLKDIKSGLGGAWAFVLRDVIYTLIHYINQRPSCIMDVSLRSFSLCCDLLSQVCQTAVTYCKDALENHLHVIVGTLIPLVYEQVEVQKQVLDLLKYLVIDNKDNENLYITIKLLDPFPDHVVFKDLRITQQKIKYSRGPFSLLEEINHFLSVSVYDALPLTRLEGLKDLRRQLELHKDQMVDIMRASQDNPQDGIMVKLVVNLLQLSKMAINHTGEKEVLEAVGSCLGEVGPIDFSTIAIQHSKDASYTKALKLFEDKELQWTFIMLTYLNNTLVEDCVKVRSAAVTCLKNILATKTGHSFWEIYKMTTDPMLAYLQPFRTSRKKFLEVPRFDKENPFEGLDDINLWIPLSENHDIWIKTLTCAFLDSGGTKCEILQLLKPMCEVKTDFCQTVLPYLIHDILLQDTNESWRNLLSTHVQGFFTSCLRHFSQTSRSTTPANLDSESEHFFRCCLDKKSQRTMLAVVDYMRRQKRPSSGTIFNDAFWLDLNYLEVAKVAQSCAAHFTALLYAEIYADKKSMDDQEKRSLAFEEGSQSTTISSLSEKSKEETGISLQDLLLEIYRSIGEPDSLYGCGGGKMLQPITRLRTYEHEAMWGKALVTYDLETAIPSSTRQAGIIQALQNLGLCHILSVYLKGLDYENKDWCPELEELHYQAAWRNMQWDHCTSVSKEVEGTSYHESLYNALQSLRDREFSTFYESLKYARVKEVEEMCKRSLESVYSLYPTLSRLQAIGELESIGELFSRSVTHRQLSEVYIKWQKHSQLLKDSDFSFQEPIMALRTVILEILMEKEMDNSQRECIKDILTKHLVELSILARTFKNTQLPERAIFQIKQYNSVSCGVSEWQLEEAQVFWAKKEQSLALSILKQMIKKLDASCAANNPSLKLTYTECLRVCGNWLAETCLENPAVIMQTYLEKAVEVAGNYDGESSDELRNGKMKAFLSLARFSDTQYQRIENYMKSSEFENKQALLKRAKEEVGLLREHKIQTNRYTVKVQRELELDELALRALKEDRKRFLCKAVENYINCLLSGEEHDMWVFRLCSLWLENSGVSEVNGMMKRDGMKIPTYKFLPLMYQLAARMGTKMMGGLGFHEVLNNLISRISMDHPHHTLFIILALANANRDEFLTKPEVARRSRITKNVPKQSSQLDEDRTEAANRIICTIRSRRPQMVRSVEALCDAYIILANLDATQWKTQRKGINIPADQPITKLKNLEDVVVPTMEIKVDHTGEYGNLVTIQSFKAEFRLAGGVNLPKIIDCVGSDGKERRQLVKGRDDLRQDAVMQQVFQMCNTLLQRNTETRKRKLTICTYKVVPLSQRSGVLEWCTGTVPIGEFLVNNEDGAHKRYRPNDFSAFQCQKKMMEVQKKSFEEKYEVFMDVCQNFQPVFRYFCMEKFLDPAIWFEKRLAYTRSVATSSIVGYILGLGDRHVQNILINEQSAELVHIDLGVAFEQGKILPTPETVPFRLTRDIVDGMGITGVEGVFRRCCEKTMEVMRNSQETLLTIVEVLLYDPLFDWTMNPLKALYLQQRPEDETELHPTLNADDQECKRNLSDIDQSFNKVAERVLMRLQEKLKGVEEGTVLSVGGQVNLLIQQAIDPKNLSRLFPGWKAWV

Regarding `CN(C)CCCOc1ccc(-c2ccc3ncc4c(c3c2)n(C2CCOCC2)c(=O)n4C)cn1` [AZD0156, reference compound], the “Inh (%) of ATM kinase” value on ATM enzyme (human) (C 1 μm (final concentration of compound)) stood at 100%. For the same compound, the pIC50 (as a rule, the IC50 on a negative log10 scale, so that one unit is a factor of ten) in assay [1] was 8.00; in assay [2], 7.96.

As for `CN(C)CCCOc1ccc(-c2ccc3ncc4nnc(C5CCOCC5)n4c3c2)cc1` [Example 4, N,N-dimethyl-3-(4-(1-(tetrahydro-2H-pyran-4-yl)-[1,2,4]triazolo[4,3-a]quinoxalin-8-yl)phenoxy)propan-1-amine], the pIC50 at ATM enzyme (human) (10-concentration dilution series, read-out: IC50, inhibition of ATM kinase) is 8.05; in assay [1] (Homo sapiens, SW-620, 120 h) it was 6.48; in assay [2] (setting [3]), 6.02. Also, the inhibition at 10 µM at ATM enzyme (human) (0.5 h, C 10 μm (final concentration of compound), read-out: Inh (%) of ATM kinase) came to 100%. Also, at ATM enzyme (human) (ATM kinase (human) assay), the “inhibitory effect on ATM kinase (in words)” value is given as “good inhibitory effect”.

For `CN(C)CCCOc1ccc(-c2ccc3ncc4nnc(C5CCOCC5)n4c3c2)nc1` [Example 5, N,N-dimethyl-3-((6-(1-(tetrahydro-2H-pyran-4-yl)-[1,2,4]triazolo[4,3-a]quinoxalin-8-yl)pyridin-3-yl)oxy)propan-1-amine], on ATM enzyme (human) (setting [4]), the inhibition at 0.01 µM was 7% and the inhibition at 0.1 µM amounted to 47%. For the same compound, the inhibition at 1 µM on ATM enzyme (human) (setting [5]) was 96%. Further, in assay [1] (Homo sapiens, SW-620, 120 h), the pIC50 is under 4.00. For the same compound, the pIC50 in assay [2] (setting [3]) is under 4.00.

Turning to `CN(C)CCCN(C)c1ccc(-c2ccc3ncc4nnc(C5CCOCC5)n4c3c2)cc1` [Example 11, N-(3-(dimethylamino)propyl)-N-methyl-4-(1-(tetrahydro-2H-pyran-4-yl)-[1,2,4]triazolo[4,3-a]quinoxalin-8-yl)aniline], the inhibition at 1 µM at ATM enzyme (human) (setting [5]) came to 64%. In addition, the pIC50 in assay [1] (Homo sapiens, SW-620, 120 h) is under 4.00; in assay [2] (setting [3]) it was under 4.00.

Consider `CN(C)C1CCN(c2ccc(-c3ccc4ncc5nnc(C6CCOCC6)n5c4c3)cc2)CC1` [Example 12, N,N-dimethyl-1-(4-(1-(tetrahydro-2H-pyran-4-yl)-[1,2,4]triazolo[4,3-a]quinoxalin-8-yl)phenyl)piperidin-4-amine], for which, on ATM enzyme (human) (setting [4]), the inhibition at 0.01 µM turned out to be 50% and the inhibition at 0.1 µM was determined as 93%. The inhibition at 1 µM at ATM enzyme (human) (setting [5]) turned out to be 100%. For the same compound, the pIC50 in assay [1] (Homo sapiens, SW-620, 120 h) was 6.76. Moreover, the negative logarithm of the IC50 (pIC50) in assay [2] (setting [3]) was 6.63.

For the compound `CN(C)C1CCC(c2ccc(-c3ccc4ncc5nnc(C6CCOCC6)n5c4c3)cc2)CC1` (stereo not shown) [Example 18, N,N-dimethyl-4-(4-(1-(tetrahydro-2H-pyran-4-yl)-[1,2,4]triazolo[4,3-a]quinoxalin-8-yl)phenyl)cyclohexan-1-amine], the inhibition at 1 µM at ATM enzyme (human) (setting [5]) came to 34%. Moreover, the pIC50 in assay [1] (Homo sapiens, SW-620, 120 h) was under 4.00; in assay [2] (setting [3]), under 4.00.

For `CN(C)CCCOc1ccc(-c2ccc3ncc4nnc(N5CCCCC5)n4c3c2)cc1` [Example 20, N,N-dimethyl-3-(4-(1-(piperidin-1-yl)-[1,2,4]triazolo[4,3-a]quinoxalin-8-yl)phenoxy)propan-1-amine], on ATM enzyme (human) (setting [4]), the inhibition at 0.01 µM is 79% and the inhibition at 0.1 µM was 99%. Moreover, the inhibition at 1 µM at ATM enzyme (human) (setting [5]) turned out to be 100%. In assay [1] (Homo sapiens, SW-620, 120 h), the pIC50 was 6.84. The same compound gave a pIC50 in assay [2] (setting [3]) of 6.91.

On to `CN(C)CCCOc1ccc(-c2ccc3ncc4nnc(N5CCOCC5)n4c3c2)cc1` [Example 21, N,N-dimethyl-3-(4-(1-morpholino-[1,2,4]triazolo[4,3-a]quinoxalin-8-yl)phenoxy)propan-1-amine], for which the inhibition at 1 µM at ATM enzyme (human) (setting [5]) came out at 100%. Besides, the pIC50 in assay [1] (Homo sapiens, SW-620, 120 h) was 6.48; in assay [2] (setting [3]) it was 6.43.

`CN(C)CCCOc1ccc(-c2ccc3ncc4nnc(N5CCN(C)CC5)n4c3c2)cc1` [Example 22, N,N-dimethyl-3-(4-(1-(4-methylpiperazin-1-yl)-[1,2,4]triazolo[4,3-a]quinoxalin-8-yl)phenoxy)propan-1-amine]: the inhibition at 1 µM at ATM enzyme (human) (setting [5]) is 100%. Further, the negative-log IC50 (pIC50) in assay [1] (Homo sapiens, SW-620, 120 h) was 6.38; in assay [2] (setting [3]), 6.37.

With `C[C@@H]1CN(c2nnc3cnc4ccc(-c5ccc(OCCCN(C)C)c(C(F)(F)F)c5)nc4n23)C[C@H](C)N1C` [Example 83, N,N-dimethyl-3-(2-(trifluoromethyl)-4-(9-((3S,5R)-3,4,5-trimethylpiperazin-1-yl)pyrido[3,2-e][1,2,4]triazolo[4,3-a]pyrazin-2-yl)phenoxy)propan-1-amine], the negative logarithm of the IC50 (pIC50) in assay [1] (Homo sapiens, SW-620, 120 h) is 6.83; in assay [2] (setting [3]), 7.13.

With `C[C@@H]1CN(c2nnc3cnc4ccc(-c5ccc(N6CCC(N(C)C)CC6)cc5)nc4n23)C[C@H](C)N1C` [Example 84, N,N-dimethyl-1-(4-(9-((3S,5R)-3,4,5-trimethylpiperazin-1-yl)pyrido[3,2-e][1,2,4]triazolo[4,3-a]pyrazin-2-yl)phenyl)piperidin-4-amine], the pIC50 in assay [1] (Homo sapiens, SW-620, 120 h) was 7.15; in assay [2] (setting [3]) it was 6.61.

`C[C@@H]1CN(c2nnc3cnc4ccc(-c5ccc(N6CCC(N(C)C)CC6)c(F)c5)nc4n23)C[C@H](C)N1C` [Example 85, 1-(2-fluoro-4-(9-((3S,5R)-3,4,5-trimethylpiperazin-1-yl)pyrido[3,2-e][1,2,4]triazolo[4,3-a]pyrazin-2-yl)phenyl)-N,N-dimethylpiperidin-4-amine]: the pIC50 in assay [1] (Homo sapiens, SW-620, 120 h) is 7.38; in assay [2] (setting [3]) it was 7.65.

For `CN(C)C1CCN(c2ccc(-c3ccc4ncc5nnc(N6CCC(N(C)C)CC6)n5c4n3)cc2)CC1` [Example 90, 1-(2-(4-(4-(dimethylamino)piperidin-1-yl)phenyl)pyrido[3,2-e][1,2,4]triazolo[4,3-a]pyrazin-9-yl)-N,N-dimethylpiperidin-4-amine], the pIC50 in assay [1] (Homo sapiens, SW-620, 120 h) is 6.01; in assay [2] (setting [3]), under 5.00.
